From the NIST ThermoML archive (doi:10.1016/j.jct.2013.08.013)

Assays:
[1] = 101 kPa, Liquid; for speed of sound: Frequency=2 MHz, Linear variable-path acoustic interferometer; for mass density: Vibrating tube method
[2] = xn = mol fraction of the nth substance listed; settings: 101 kPa, Liquid; for speed of sound: Frequency=2 MHz, Linear variable-path acoustic interferometer; for mass density: Vibrating tube method

CCCCCCCO [heptan-1-ol]
[1]
Settings	mass density [kg/m3]	speed of sound [m/s]
298.15 K	818.79	1326.5
303.15 K	815.21	1313.6
308.15 K	811.62	1293.1

CCCCO [butan-1-ol] + Cc1ccccc1Cl
[2], x2 = 0
Settings	mass density [kg/m3]	speed of sound [m/s]
298.15 K	805.95	1238.9
303.15 K	802.11	1223.4
308.15 K	798.24	1206.8

Cc1ccccc1Cl [2-chlorotoluene] + CCCCCO
[2]
Settings	mass density, 298.15 K [kg/m3]	mass density, 303.15 K [kg/m3]	mass density, 308.15 K [kg/m3]	speed of sound, 298.15 K [m/s]	speed of sound, 303.15 K [m/s]	speed of sound, 308.15 K [m/s]
x1 = 0.0964	838.77	834.85	830.94	1280.2	1263	1250
x1 = 0.189	865.02	860.96	856.9	1282.2	1264	1250.2
x1 = 0.294	894.17	889.95	885.73	1281.9	1262.5	1247.7
x1 = 0.388	919.71	915.37	911.06	1280.9	1260.7	1244.5
x1 = 0.4962	948.58	944.07	939.74	1279	1258.1	1240.9
x1 = 0.5892	972.97	968.37	963.98	1277.5	1255.8	1238.3
x1 = 0.697	1000.83	996.18	991.75	1278	1256.1	1238
x1 = 0.8057	1028.54	1023.88	1019.37	1281	1260.1	1242.2
x1 = 0.8949	1051.02	1046.43	1041.83	1287	1267.2	1250
x1 = 1	1077.38	1072.8	1068.21	1299.8	1283.6	1265.6

CCCCO [butan-1-ol]
[1]
Settings	mass density [kg/m3]	speed of sound [m/s]
298.15 K	805.95	1238.9
303.15 K	802.11	1223.4
308.15 K	798.24	1206.8

Cc1ccccc1Cl [2-chlorotoluene] + CCCO
[2]
Settings	mass density, 298.15 K [kg/m3]	mass density, 303.15 K [kg/m3]	mass density, 308.15 K [kg/m3]	speed of sound, 298.15 K [m/s]	speed of sound, 303.15 K [m/s]	speed of sound, 308.15 K [m/s]
x1 = 0.089	837.16	832.98	828.75	1219	1200.1	1181.4
x1 = 0.1947	877.01	872.53	868.14	1232	1212.4	1192.8
x1 = 0.2938	910.41	905.71	901.22	1242.5	1221.5	1201.9
x1 = 0.3841	937.91	933.15	928.51	1249.2	1228.7	1207.8
x1 = 0.4898	967.13	962.37	957.66	1257	1234.8	1213.9
x1 = 0.5918	992.79	988	983.25	1262.5	1240.5	1219.2
x1 = 0.6979	1017.16	1012.42	1007.7	1269	1246.3	1225.2
x1 = 0.7955	1037.96	1033.25	1028.56	1275.3	1253.4	1234
x1 = 0.8932	1057.42	1052.78	1048.12	1284.4	1264.7	1245.4
x1 = 1	1077.38	1072.8	1068.21	1299.8	1283.6	1265.6

Cc1ccccc1Cl [2-chlorotoluene] + CCCCO
[2]
Settings	mass density, 298.15 K [kg/m3]	mass density, 303.15 K [kg/m3]	mass density, 308.15 K [kg/m3]	speed of sound, 298.15 K [m/s]	speed of sound, 303.15 K [m/s]	speed of sound, 308.15 K [m/s]
x1 = 0.0914	837.37	833.28	829.2	1247.4	1231.4	1213.3
x1 = 0.2026	873.25	868.95	864.69	1255.5	1238.2	1219.2
x1 = 0.2888	899.51	895.11	890.72	1260.1	1241.1	1222.2
x1 = 0.3958	930.38	925.85	921.35	1264.2	1244.1	1224.3
x1 = 0.4973	958.03	953.44	948.87	1267.1	1246	1226
x1 = 0.6021	985.11	980.47	975.89	1269	1249.2	1227.4
x1 = 0.6969	1008.43	1003.83	999.22	1271.4	1250.4	1231
x1 = 0.7892	1030.29	1025.68	1021.07	1276.7	1255.4	1236.4
x1 = 0.894	1054.17	1049.55	1044.94	1285.6	1266.4	1247
x1 = 1	1077.38	1072.8	1068.21	1299.8	1283.6	1265.6
